Results reported in patent US20240139220A1, “TREATMENT OF HPV INFECTION” (priority 2022, published 2024).
Read-outs that look alike come from different tables or passages of the source.

Key:
[1] = tested on: C33A cells; test: In vitro cytotoxicity, XTT, five days; conditions: read-out: C33A CC50
Method: (§1) Three compounds (Compound I, Compound II and Compound III) were solubilized at 40 mM in DMSO and stored at −20° C. The test compounds were evaluated using a high test concentration of 50 μM. Serial half-logarithmic dilutions were performed for the in vitro cytotoxicity assays.
(§2) Cells listed in Table 70 were enumerated by Trypan Blue Dye exclusion method and seeded in the interior wells of a 96 well flat bottom microtiter plate at 100 μL/well. Proliferating cells were incubated overnight at 37° C./5% CO2 to allow the cells to adhere to the plates at approximately 70% confluency. Tissue culture medium was removed and replaced with 100 μL/well of fresh medium. One-hundred microliters (100 μL) of each compound at six concentrations was transferred to the 96-well plate containing the cells in triplicate. Table 70 lists the cell line, type of cell, source of cell stock, base tissue culture medium supplemented with 10% fetal bovine serum, 2 mM L-glutamine, 100 U/mL penicillin and 100 μg/mL streptomycin, and microtiter plate seeding density.
(§3) Following incubation at 37′C in a 5% CO2 incubator for five days, the test plates were stained with the tetrazolium dye XTT (2,3-bis(2-methoxy-4-nitro-5-sulfopheny1)-5-[(phenylamino)carbonyl]-2H-tetrazolium hydroxide). XTT-tetrazolium was metabolized by the mitochondrial enzymes of metabolically active cells to a soluble formazan product. XTT solution was prepared daily as a stock of 1 mg/ml in RPM11640. Phenazine methosulfate (PMS) solution was prepared at 0.15 mg/ml in PBS and stored in the dark at −20° C. XTT/PMS stock was prepared immediately before use by adding 40 μL of PMS per ml of XTT solution. Fifty microliters of XTT/PMS were added to each well of the plate and the plate was reincubated for 4 hours at 37° C. Plates were sealed with adhesive plate sealers and shaken gently or inverted several times to mix the soluble formazan product and the plate was read spectrophotometrically at 450/650 nm with a Molecular Devices Vmax plate reader.
(§4) Microsoft Excel 2010 was used to analyze and graph the raw data. CCso (50% reduction in cell viability) values are tabulated and provided. Raw data for cytotoxicity with a graphic representation of the data are provided in a printout summarizing the compound effect on cell viability.
(§5) Compounds I, II, and III were evaluated for cytotoxicity to proliferating Hs27, HeLa, C33A and HEK293 cells by measuring cell viability using XTI tetrazolium dye following five days in culture (Table 71).

[2] = tested on: HeLa cells; test: In vitro cytotoxicity, XTT, five days
Method: as §1, §2, §3, §4, §5

[3] = tested on: Hs27 cells; test: In vitro cytotoxicity, XTT, five days
Method: as §1, §2, §3, §4, §5

[4] = Behavior under compression, grinding simulation and granulation simulation (XRPD); assay type: physicochemical
Method: About 10 mg of Compound I monofumarate Pattern 1 (Example 7) was compressed for 5 minutes at 10 MPa with a hydraulic press. XRPD characterization was performed to investigate the polymorphic behavior under compression.
About 10 mg of Compound I monofumarate Pattern 1 (Example 7) was ground manually with a mortar and pestle for 5 min. Form transformation and degree of crystallinity was evaluated by XRPD.
Water or ethanol was added drop wise to about 10 mg of Compound I monofumarate Pattern 1 (Example 7) until solids were wetted sufficiently. The samples were ground manually with a mortar and pestle for 3 minutes. Samples are dried under ambient condition for 10 min. Form transformation and degree of crystallinity were evaluated by XRPD.

[5] = Approximate solubility in solvents at 25° C. and 50° C. by visual observation; assay type: physicochemical
Method: The maximum volume of each solvent added was 1 mL. Approximate solubility was determined by visual observation.
Maximum volume of each solvent added was 1 mL. Approximate solubility was determined by visual observation.

[6] = Bulk stability, accelerated storage for one week (HPLC, XRPD); assay type: physicochemical
Method: Bulk stability: Accelerated stability experiments were conducted at 25° C./92% RH and 40° C./75% RH in an open container, 60° C. in a tight container for one week.
Samples were characterized by XRPD and HPLC and inspected for color change.
Accelerated stability experiments were conducted at 25° C./92% RH in an open container, at 40° C./75% RH in an open container, and at 60° C. in a tight container for one week.

[7] = Hygroscicity by Dynamic Vapor Sorption (DVS) at 25° C.; assay type: physicochemical
Method: Hygroscopicity was investigated by DVS at 25° C., using the following method: […]

[8] = Solubility in buffers, water and simulated vaginal fluid at 37° C.; assay type: physicochemical
Method: About 4 mg of Compound I Pattern 1 was added into 2 mL of buffer solution.
(§6) Solubility was tested in five media, pH 3.0 citrate buffer, pH 4.5 acetate buffer, pH 6.8 phosphate buffer, water, simulated vaginal fluid (pH 4.2) at 37° C. for 0.5 h and 2 h.
The salt amount used is equivalent to 10 mg anhydrous free base. […] The obtained clear solutions were analyzed by pH meter for pH, and solubility was determined by observation.
as §6

[9] = tested on: HEK293 cells
Method: as §1
Cells listed in Table 70 were enumerated by Trypan Blue Dye exclusion method and seeded in the interior wells of a 96 well flat bottom microtiter plate at 100 μL/well. Proliferating cells were incubated overnight at 37° C./5% CO2 to allow the cells to adhere to the plates at approximately 70% confluency. Tissue culture medium was removed and replaced with 100 μL/well of fresh medium. […]
Following incubation at 37′C in a 5% CO2 incubator for five days, the test plates were stained with the tetrazolium dye XTT (2,3-bis(2-methoxy-4-nitro-5-sulfopheny1)-5-[(phenylamino)carbonyl]-2H-tetrazolium hydroxide). […] Plates were sealed with adhesive plate sealers and shaken gently or inverted several times to mix the soluble formazan product and the plate was read spectrophotometrically at 450/650 nm with a Molecular Devices Vmax plate reader. […]
as §5

[10] = 25° C., 92% RH, open container, one week
[11] = 40° C., 75% RH, open container, one week
[12] = 60° C., tight container, one week
[13] = Simulated vaginal fluid (pH adjusted with 0.2N NaOH)

SMILES: CCOC(=O)C(C)NP(=O)(COCCn1cnc2c(OC)nc(N)nc21)OCc1ccccc1 (mixture of isomers) [ABl2280]
- CC50 [1]: 0.28 µM
- CC50 ([2]; read-out: HeLa CC50, HeLa cells, XTT, five days): 18.6 µM
- CC50 ([3]; read-out: Hs27 CC50, Hs27 cells, XTT, five days): 22.9 µM

SMILES: CCOC(=O)C(C)NP(=O)(COCCn1cnc2c(OC)nc(N)nc21)OCc1ccccc1.O=C(O)C=CC(=O)O (mixture of isomers) [Compound I Monofumarate Pattern 1]
- Polymorphic behavior under compression (XRPD) ([4]; compressed for 5 minutes at 10 MPa): no form change was observed
- Form transformation and crystallinity after grinding (XRPD) ([4]; ground manually with mortar and pestle for 5 min): no form change was observed; crystallinity slightly decreased
- Form transformation after granulation simulation (XRPD) ([4]; wetted with water or ethanol, ground 3 minutes, dried 10 min): neither in ethanol, nor in water form change was observed
- Solubility ([5]; Acetone, 25° C.): 50000 to 100000 µg/mL
- Solubility ([5]; Acetone, 50° C.): 125000 to 167000 µg/mL
- Solubility ([5]; Acetonitrile (ACN), 25° C.): 20000 to 25000 µg/mL
- Solubility ([5]; Acetonitrile (ACN), 50° C.): 20000 to 33000 µg/mL
- Solubility ([5]; Dichloromethane (DCM), 25° C.): <2000 µg/mL
- Solubility ([5]; Dichloromethane (DCM), 50° C.): <10000 µg/mL
- Solubility ([5]; Ethanol (EtOH), 25° C.): >100000 µg/mL
- Solubility ([5]; Ethanol (EtOH), 50° C.): 250000 to 500000 µg/mL
- Solubility ([5]; Ethyl acetate (EA), 25° C.): <2000 µg/mL
- Solubility ([5]; Ethyl acetate (EA), 50° C.): <10000 µg/mL
- Solubility ([5]; Heptanes, 25° C.): <2000 µg/mL
- Solubility ([5]; Heptanes, 50° C.): <10000 µg/mL
- Solubility ([5]; Isopropanol (IPA), 25° C.): 50000 to 100000 µg/mL
- Solubility ([5]; Isopropanol (IPA), 50° C.): 71000 to 84000 µg/mL
- Solubility ([5]; Isopropyl acetate (IPAc), 25° C.): <2000 µg/mL
- Solubility ([5]; Isopropyl acetate (IPAc), 50° C.): <10000 µg/mL
- Solubility ([5]; Methanol (MeOH), 25° C.): >100000 µg/mL
- Solubility ([5]; Methanol (MeOH), 50° C.): >500000 µg/mL
- Solubility ([5]; Methyl ethyl ketone (MEK), 25° C.): 20000 to 25000 µg/mL
- Solubility ([5]; Methyl ethyl ketone (MEK), 50° C.): 22000 to 25000 µg/mL
- Solubility ([5]; Methyl t-butyl ether (MTBE), 25° C.): <2000 µg/mL
- Solubility ([5]; Methyl t-butyl ether (MTBE), 50° C.): <10000 µg/mL
- Solubility ([5]; Tetrahydrofuran (THF), 25° C.): >100000 µg/mL
- Solubility ([5]; Tetrahydrofuran (THF), 50° C.): 250000 to 500000 µg/mL
- Solubility ([5]; Toluene, 25° C.): <2000 µg/mL
- Solubility ([5]; Toluene, 50° C.): <10000 µg/mL
- Solubility ([5]; Water, 25° C.): 14000 to 17000 µg/mL
- Solubility ([5]; Water, 50° C.): 22000 to 25000 µg/mL
- XRPD ([6]; 25° C., 84% RH, open container, 2 days): No change
- HPLC (chemical purity) [6, 10]: 98.2%
- XRPD [6, 10]: No change
- HPLC (chemical purity) [6, 11]: 95.6%
- XRPD [6, 11]: No change
- HPLC (chemical purity) [6, 12]: 95.5%
- XRPD [6, 12]: No change
- HPLC (chemical purity) ([6]; Initial): 98.6%
- D. (%) Cycle 1 (Desorption) ([7]; 0% RH, 25° C.): 0.49%
- D. (%) Cycle 2 (Desorption) ([7]; 0% RH, 25° C.): 0.09%
- S. (%) Cycle 1 (Sorption) ([7]; 0% RH, 25° C.): 0.49%
- S. (%) Cycle 2 (Sorption) ([7]; 0% RH, 25° C.): 0.09%
- D. (%) Cycle 1 (Desorption) ([7]; 10% RH, 25° C.): 0.62%
- D. (%) Cycle 2 (Desorption) ([7]; 10% RH, 25° C.): 0.15%
- S. (%) Cycle 1 (Sorption) ([7]; 10% RH, 25° C.): 0.56%
- S. (%) Cycle 2 (Sorption) ([7]; 10% RH, 25° C.): 0.18%
- D. (%) Cycle 1 (Desorption) ([7]; 20% RH, 25° C.): 0.71%
- D. (%) Cycle 2 (Desorption) ([7]; 20% RH, 25° C.): 0.35%
- S. (%) Cycle 1 (Sorption) ([7]; 20% RH, 25° C.): 0.66%
- S. (%) Cycle 2 (Sorption) ([7]; 20% RH, 25° C.): 0.27%
- D. (%) Cycle 1 (Desorption) ([7]; 30% RH, 25° C.): 0.81%
- D. (%) Cycle 2 (Desorption) ([7]; 30% RH, 25° C.): 0.47%
- S. (%) Cycle 1 (Sorption) ([7]; 30% RH, 25° C.): 0.76%
- S. (%) Cycle 2 (Sorption) ([7]; 30% RH, 25° C.): 0.37%
- D. (%) Cycle 1 (Desorption) ([7]; 40% RH, 25° C.): 0.93%
- D. (%) Cycle 2 (Desorption) ([7]; 40% RH, 25° C.): 0.56%
- S. (%) Cycle 1 (Sorption) ([7]; 40% RH, 25° C.): 0.86%
- S. (%) Cycle 2 (Sorption) ([7]; 40% RH, 25° C.): 0.47%
- D. (%) Cycle 2 (Desorption) ([7]; 50% RH, 25° C.): 0.67%
- S. (%) Cycle 1 (Sorption) ([7]; 50% RH, 25° C.): 0.71%
- D. (%) Cycle 2 (Desorption) ([7]; 60% RH, 25° C.): 0.85%
- S. (%) Cycle 1 (Sorption) ([7]; 60% RH, 25° C.): 0.85%
- D. (%) Cycle 2 (Desorption) ([7]; 70% RH, 25° C.): 1.04%
- S. (%) Cycle 1 (Sorption) ([7]; 70% RH, 25° C.): 1.02%
- D. (%) Cycle 2 (Desorption) ([7]; 80% RH, 25° C.): 1.30%
- S. (%) Cycle 1 (Sorption) ([7]; 80% RH, 25° C.): 1.27%
- D. (%) Cycle 2 (Desorption) ([7]; 90% RH, 25° C.): 1.84%
- S. (%) Cycle 1 (Sorption) ([7]; 90% RH, 25° C.): 1.78%
- D. (%) Cycle 2 (Desorption) ([7]; 95% RH, 25° C.): 2.89%
- S. (%) Cycle 1 (Sorption) ([7]; 95% RH, 25° C.): 2.89%
- XRPD after DVS test ([7]; cycle 40-0-95-0-40% RH, 25° C.): No form change,
- Water uptake ([7]; up to 95% RH, DVS 25° C.): about 2.9%
- Solubility 0.5 hrs [8, 13]: >2000 µg/mL
- Solubility 2 hrs [8, 13]: >2000 µg/mL
- pH at 2 hrs [8, 13]: (5.39)
- Solubility 0.5 hrs ([8]; Water): >2000 µg/mL
- Solubility 2 hrs ([8]; Water): >2000 µg/mL
- pH at 2 hrs ([8]; Water): (3.11)
- Solubility 0.5 hrs ([8]; pH 3.0 100 mM citrate buffer): >2000 µg/mL
- Solubility 2 hrs ([8]; pH 3.0 100 mM citrate buffer): >2000 µg/mL
- pH at 2 hrs ([8]; pH 3.0 100 mM citrate buffer): (3.05)
- Solubility 0.5 hrs ([8]; pH 4.5 50 mM acetate buffer): >2000 µg/mL
- Solubility 2 hrs ([8]; pH 4.5 50 mM acetate buffer): >2000 µg/mL
- pH at 2 hrs ([8]; pH 4.5 50 mM acetate buffer): (4.36)
- Solubility 0.5 hrs ([8]; pH 6.8 50 mM phosphate buffer): >2000 µg/mL
- Solubility 2 hrs ([8]; pH 6.8 50 mM phosphate buffer): >2000 µg/mL
- pH at 2 hrs ([8]; pH 6.8 50 mM phosphate buffer): (6.49)

SMILES: CCOC(=O)C(C)NP(=O)(COCCn1cnc2c(OC)nc(N)nc21)OCc1ccccc1 (single isomer, unassigned; isomer 1) [ABl2280 Isomer 1]
- CC50 [1]: 0.2 µM
- CC50 [2]: 15.1 µM
- CC50 [3]: 23.2 µM
- CC50 [9]: < 0.16 µM

SMILES: CCOC(=O)C(C)NP(=O)(COCCn1cnc2c(OC)nc(N)nc21)OCc1ccccc1 (single isomer, unassigned; isomer 2) [ABl2280 Isomer 2]
- CC50 [1]: < 0.16 µM
- CC50 [2]: 16.9 µM
- CC50 [3]: 7.62 µM
- CC50 [9]: < 0.16 µM
